These are literature values, as cited in patent publication US20190320698A1, “HYDROLYZED PECTIN AND USEOF THE SAME” (International Flavors & Fragrances Inc., priority 2018, published 2019).

The conditions of the data set: approximate values.
`CSC` [dimethyl sulfide]: the “Water Solubility (g/L, approx.)” value is on record as “Insoluble”.

Regarding `CCOC(C)=O` [ethyl acetate], the “Water Solubility (g/L, approx.)” value is reported as around 90 g/L.

For the compound `CCCC(=O)OCC` [ethyl butyrate], the “Water Solubility (g/L, approx.)” value is around 6 g/L.

Take `CCOC(=O)CC` [ethyl propionate]: the “Water Solubility (g/L, approx.)” value is recorded as around 14 g/L.

As to `CCCC(=O)OC` [methyl butyrate], the “Water Solubility (g/L, approx.)” value is on record as around 15 g/L.
